Assay results reported in PubChem BioAssay (NCI).
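Five compound concentrations were applied to cells in 96-well plates for 48 hours; endpoints were derived by simple linear interpolation of the resulting dose-response curve. TGI denotes the concentration required for complete inhibition of growth.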

Assays:
Experiment in all cases: growth of human tumour cells (NCI), 48 h
ACHN renal = test system: ACHN renal
IGROV1 ovarian = test system: IGROV1 ovarian
OVCAR-5 ovarian = test system: OVCAR-5 ovarian
DMS 273 small cell lung = test system: DMS 273 small cell lung
HL-60(TB) leukemia = test system: HL-60(TB) leukemia
RXF 393 renal = test system: RXF 393 renal
SK-OV-3 ovarian = test system: SK-OV-3 ovarian
SNB-19 CNS = test system: SNB-19 CNS
OVCAR-4 ovarian = test system: OVCAR-4 ovarian
OVCAR-8 ovarian = test system: OVCAR-8 ovarian
HOP-62 NSCLC = test system: HOP-62 NSCLC
CCRF-CEM leukemia = test system: CCRF-CEM leukemia
A498 renal = test system: A498 renal
CAKI-1 renal = test system: CAKI-1 renal
UACC-62 melanoma = test system: UACC-62 melanoma
K-562 leukemia = test system: K-562 leukemia
LXFL 529 NSCLC = test system: LXFL 529 NSCLC
NCI-H226 lung = test system: NCI-H226 lung
KM20L2 colon = test system: KM20L2 colon
SF-539 CNS = test system: SF-539 CNS
XF 498 CNS = test system: XF 498 CNS
UACC-257 melanoma = test system: UACC-257 melanoma
KM12 colon = test system: KM12 colon
SNB-78 CNS = test system: SNB-78 CNS
786-0 renal = test system: 786-0 renal
MOLT-4 leukemia = test system: MOLT-4 leukemia
SN12C renal = test system: SN12C renal
HT29 colon = test system: HT29 colon
HOP-92 NSCLC = test system: HOP-92 NSCLC
SF-268 CNS = test system: SF-268 CNS
RXF-631 renal = test system: RXF-631 renal
MALME-3M melanoma = test system: MALME-3M melanoma
TK-10 renal = test system: TK-10 renal
SF-295 CNS = test system: SF-295 CNS
UO-31 renal = test system: UO-31 renal
A549 NSCLC = test system: A549 NSCLC
RPMI-8226 leukemia = test system: RPMI-8226 leukemia
COLO 205 colon = test system: COLO 205 colon
DMS 114 small cell lung = test system: DMS 114 small cell lung
SK-MEL-5 melanoma = test system: SK-MEL-5 melanoma
OVCAR-3 ovarian = test system: OVCAR-3 ovarian
M19-MEL melanoma = test system: M19-MEL melanoma
NCI-H460 lung = test system: NCI-H460 lung
EKVX NSCLC = test system: EKVX NSCLC
LOX IMVI melanoma = test system: LOX IMVI melanoma
U251 CNS = test system: U251 CNS
NCI-H23 lung = test system: NCI-H23 lung
NCI-H522 lung = test system: NCI-H522 lung
HOP-18 NSCLC = test system: HOP-18 NSCLC
M14 melanoma = test system: M14 melanoma
SW-620 colon = test system: SW-620 colon
SK-MEL-28 melanoma = test system: SK-MEL-28 melanoma
HCC-2998 colon = test system: HCC-2998 colon
SNB-75 CNS = test system: SNB-75 CNS
DLD-1 colon = test system: DLD-1 colon
HCT-116 colon = test system: HCT-116 colon
SR leukemia = test system: SR leukemia
SK-MEL-2 melanoma = test system: SK-MEL-2 melanoma
HCT-15 colon = test system: HCT-15 colon

## FC(F)(F)c1cc(C2SCc3nc4ccccc4n32)cc(C(F)(F)F)c1 (stereo unspecified)
ACHN renal
  TGI: > 100 µM
IGROV1 ovarian
  TGI: > 100 µM
OVCAR-5 ovarian
  TGI: > 100 µM
DMS 273 small cell lung
  TGI: > 100 µM
HL-60(TB) leukemia
  TGI: > 100 µM
RXF 393 renal
  TGI: > 100 µM
SK-OV-3 ovarian
  TGI: > 100 µM
SNB-19 CNS
  TGI: > 100 µM
OVCAR-4 ovarian
  TGI: > 100 µM
OVCAR-8 ovarian
  TGI: > 100 µM
HOP-62 NSCLC
  TGI: > 100 µM
CCRF-CEM leukemia
  TGI: > 100 µM
A498 renal
  TGI: > 100 µM
CAKI-1 renal
  TGI: > 100 µM
UACC-62 melanoma
  TGI: > 100 µM
K-562 leukemia
  TGI: > 100 µM
LXFL 529 NSCLC
  TGI: > 100 µM
NCI-H226 lung
  TGI: > 100 µM
KM20L2 colon
  TGI: > 100 µM
SF-539 CNS
  TGI: > 100 µM
XF 498 CNS
  TGI: 35.6 µM
UACC-257 melanoma
  TGI: > 100 µM
KM12 colon
  TGI: > 100 µM
SNB-78 CNS
  TGI: > 100 µM
786-0 renal
  TGI: > 100 µM
MOLT-4 leukemia
  TGI: > 100 µM
SN12C renal
  TGI: > 100 µM
HT29 colon
  TGI: > 100 µM
HOP-92 NSCLC
  TGI: > 100 µM
SF-268 CNS
  TGI: > 100 µM
RXF-631 renal
  TGI: > 100 µM
MALME-3M melanoma
  TGI: > 100 µM
TK-10 renal
  TGI: > 100 µM
SF-295 CNS
  TGI: > 100 µM
UO-31 renal
  TGI: > 100 µM

## CCOC(=O)c1cc2c3c(c(O)c(OC)c2s1)N(C(=O)c1cc2c4c(c(O)c(OC)c2s1)N(C(C)=O)CC4)CC3
A549 NSCLC
  TGI: > 100 µM
RPMI-8226 leukemia
  TGI: > 100 µM
COLO 205 colon
  TGI: > 100 µM
DMS 114 small cell lung
  TGI: > 100 µM
ACHN renal
  TGI: > 100 µM
IGROV1 ovarian
  TGI: > 100 µM
OVCAR-5 ovarian
  TGI: > 100 µM
DMS 273 small cell lung
  TGI: > 100 µM
SK-MEL-5 melanoma
  TGI: > 100 µM
OVCAR-3 ovarian
  TGI: > 100 µM
HL-60(TB) leukemia
  TGI: > 100 µM
RXF 393 renal
  TGI: > 100 µM
M19-MEL melanoma
  TGI: > 100 µM
SK-OV-3 ovarian
  TGI: > 100 µM
SNB-19 CNS
  TGI: > 100 µM
OVCAR-4 ovarian
  TGI: > 100 µM
NCI-H460 lung
  TGI: > 100 µM
OVCAR-8 ovarian
  TGI: > 100 µM
EKVX NSCLC
  TGI: > 100 µM
HOP-62 NSCLC
  TGI: > 100 µM
CCRF-CEM leukemia
  TGI: > 100 µM
LOX IMVI melanoma
  TGI: > 100 µM
A498 renal
  TGI: > 100 µM
CAKI-1 renal
  TGI: > 100 µM
UACC-62 melanoma
  TGI: > 100 µM
U251 CNS
  TGI: > 100 µM
K-562 leukemia
  TGI: > 100 µM
LXFL 529 NSCLC
  TGI: > 100 µM
NCI-H226 lung
  TGI: > 100 µM
KM20L2 colon
  TGI: > 100 µM
SF-539 CNS
  TGI: > 100 µM
NCI-H23 lung
  TGI: > 100 µM
XF 498 CNS
  TGI: 67.8 µM
UACC-257 melanoma
  TGI: > 100 µM
KM12 colon
  TGI: > 100 µM
NCI-H522 lung
  TGI: > 100 µM
HOP-18 NSCLC
  TGI: > 100 µM
SNB-78 CNS
  TGI: > 100 µM
M14 melanoma
  TGI: > 100 µM
SW-620 colon
  TGI: > 100 µM
786-0 renal
  TGI: > 100 µM
SK-MEL-28 melanoma
  TGI: > 100 µM
SN12C renal
  TGI: > 100 µM
HCC-2998 colon
  TGI: > 100 µM
HT29 colon
  TGI: > 100 µM
HOP-92 NSCLC
  TGI: > 100 µM
SF-268 CNS
  TGI: > 100 µM
SNB-75 CNS
  TGI: 67.1 µM
DLD-1 colon
  TGI: > 100 µM
RXF-631 renal
  TGI: > 100 µM
MALME-3M melanoma
  TGI: > 100 µM
TK-10 renal
  TGI: > 100 µM
SF-295 CNS
  TGI: > 100 µM
UO-31 renal
  TGI: > 100 µM
HCT-116 colon
  TGI: > 100 µM

## Cc1cn(C2CC(N(C)C)C(CO)O2)c(=O)[nH]c1=O (stereo unspecified)
RPMI-8226 leukemia
  TGI: > 100 µM
COLO 205 colon
  TGI: > 100 µM
DMS 114 small cell lung
  TGI: > 100 µM
ACHN renal
  TGI: > 100 µM
IGROV1 ovarian
  TGI: > 100 µM
DMS 273 small cell lung
  TGI: > 100 µM
HL-60(TB) leukemia
  TGI: > 100 µM
M19-MEL melanoma
  TGI: > 100 µM
SK-OV-3 ovarian
  TGI: > 100 µM
OVCAR-4 ovarian
  TGI: > 100 µM
HOP-62 NSCLC
  TGI: > 100 µM
CCRF-CEM leukemia
  TGI: > 100 µM
A498 renal
  TGI: > 100 µM
CAKI-1 renal
  TGI: > 100 µM
UACC-62 melanoma
  TGI: > 100 µM
K-562 leukemia
  TGI: > 100 µM
LXFL 529 NSCLC
  TGI: > 100 µM
NCI-H226 lung
  TGI: > 100 µM
SF-539 CNS
  TGI: > 100 µM
NCI-H23 lung
  TGI: > 100 µM
XF 498 CNS
  TGI: > 100 µM
NCI-H522 lung
  TGI: > 100 µM
SNB-78 CNS
  TGI: > 100 µM
M14 melanoma
  TGI: > 100 µM
786-0 renal
  TGI: > 100 µM
MOLT-4 leukemia
  TGI: > 100 µM
SK-MEL-28 melanoma
  TGI: > 100 µM
SR leukemia
  TGI: > 100 µM
SN12C renal
  TGI: > 100 µM
HCC-2998 colon
  TGI: > 100 µM
HOP-92 NSCLC
  TGI: > 100 µM
SF-268 CNS
  TGI: > 100 µM
SNB-75 CNS
  TGI: > 100 µM
DLD-1 colon
  TGI: > 100 µM
RXF-631 renal
  TGI: > 100 µM
MALME-3M melanoma
  TGI: > 100 µM
UO-31 renal
  TGI: > 100 µM
SK-MEL-2 melanoma
  TGI: > 100 µM
HCT-116 colon
  TGI: > 100 µM

## COc1cc2c(cc1OC)C(C(=O)c1cccc(OC)c1OC)C(=O)N(C)CC2 (stereo unspecified)
A549 NSCLC
  TGI: > 100 µM
RPMI-8226 leukemia
  TGI: > 100 µM
COLO 205 colon
  TGI: > 100 µM
DMS 114 small cell lung
  TGI: > 100 µM
ACHN renal
  TGI: > 100 µM
IGROV1 ovarian
  TGI: > 100 µM
DMS 273 small cell lung
  TGI: > 100 µM
SK-MEL-5 melanoma
  TGI: > 100 µM
OVCAR-3 ovarian
  TGI: > 100 µM
HL-60(TB) leukemia
  TGI: > 100 µM
RXF 393 renal
  TGI: > 100 µM
M19-MEL melanoma
  TGI: > 100 µM
SK-OV-3 ovarian
  TGI: > 100 µM
SNB-19 CNS
  TGI: > 100 µM
OVCAR-4 ovarian
  TGI: > 100 µM
NCI-H460 lung
  TGI: > 100 µM
OVCAR-8 ovarian
  TGI: > 100 µM
HOP-62 NSCLC
  TGI: > 100 µM
CCRF-CEM leukemia
  TGI: > 100 µM
LOX IMVI melanoma
  TGI: > 100 µM
A498 renal
  TGI: > 100 µM
CAKI-1 renal
  TGI: > 100 µM
UACC-62 melanoma
  TGI: > 100 µM
U251 CNS
  TGI: > 100 µM
K-562 leukemia
  TGI: > 100 µM
LXFL 529 NSCLC
  TGI: > 100 µM
NCI-H226 lung
  TGI: > 100 µM
KM20L2 colon
  TGI: > 100 µM
NCI-H23 lung
  TGI: > 100 µM
XF 498 CNS
  TGI: > 100 µM
UACC-257 melanoma
  TGI: > 100 µM
KM12 colon
  TGI: > 100 µM
NCI-H522 lung
  TGI: > 100 µM
HOP-18 NSCLC
  TGI: > 100 µM
M14 melanoma
  TGI: > 100 µM
SW-620 colon
  TGI: > 100 µM
786-0 renal
  TGI: > 100 µM
MOLT-4 leukemia
  TGI: > 100 µM
SK-MEL-28 melanoma
  TGI: > 100 µM
SN12C renal
  TGI: > 100 µM
HCT-15 colon
  TGI: > 100 µM
HT29 colon
  TGI: > 100 µM
HOP-92 NSCLC
  TGI: > 100 µM
SF-268 CNS
  TGI: > 100 µM
SNB-75 CNS
  TGI: > 100 µM
DLD-1 colon
  TGI: > 100 µM
RXF-631 renal
  TGI: > 100 µM
MALME-3M melanoma
  TGI: > 100 µM
TK-10 renal
  TGI: > 100 µM
UO-31 renal
  TGI: > 100 µM
SK-MEL-2 melanoma
  TGI: > 100 µM
HCT-116 colon
  TGI: > 100 µM
